{"source": "paper PMC7377239", "about": "“Cardiovascular Effects of Polychlorinated Biphenyls and Their Major Metabolites” (Environmental Health Perspectives, 2020)", "key": {"[1]": {"system": "iCell endothelial cells (human iPSC-derived ECs)", "experiment": "Tube formation (tubulogenesis) assay in iCell endothelial cells, 18 h", "type": "cell-based", "settings": "Homo sapiens, Endothelial cell, 18 hr; for activity at 0.1 µM: 0.10 µM", "in_short": "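iCell ECs (passages 1–5) seeded 7,500 cells/well on reduced-growth-factor Geltrex in starvation medium, exposed overnight at 37°C to compounds in triplicate concentration–response (0.5% DMSO vehicle). Calcein AM staining, 4× imaging, angiogenesis image analysis; readouts normalized to vehicle, four-parameter logistic fit, POD at 1 SD of vehicle; 100 μM assigned NOAEL if no response.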"}, "[2]": {"system": "iCell endothelial cells (human iPSC-derived ECs)", "experiment": "High-content imaging cytotoxicity in iCell endothelial cells, 24 h", "type": "cell-based", "settings": "Homo sapiens, Endothelial cell, 24 hr; for viability at 0.1 µM / activity at 0.1 µM: 0.10 µM", "in_short": "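Human iPSC-derived endothelial cells (passages 1–5) were grown to a fibronectin-coated monolayer, then exposed 24 h at 37 °C with 0.5% DMSO vehicle. Staining was Hoechst 33342, MitoTracker Orange and calcein AM, read by high-content imaging. Point of departure came from 4-parameter logistic fits, with a 1-SD vehicle cutoff and 100 µM as the top concentration.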"}, "[3]": {"settings": "iPSC-EC tube formation, 0.00 µM control = 100.00, read-out: endo.mtl.18hr"}, "[4]": {"settings": "iPSC-EC tube formation, 0.00 µM control = 100.00, read-out: endo.tlps.18hr"}, "[5]": {"settings": "iPSC-EC tube formation, 0.00 µM control = 100.00, read-out: endo.tta.18hr"}, "[6]": {"settings": "iPSC-EC tube formation, 0.00 µM control = 100.00, read-out: endo.ttl.18hr"}, "[7]": {"settings": "iPSC-EC, 0.00 µM control = 100.00, read-out: endo.cyto.24hr"}, "[8]": {"settings": "iPSC-EC, 0.00 µM control = 100.00, read-out: endo.mito.24hr"}, "[9]": {"settings": "iPSC-EC, 0.00 µM control = 100.00, read-out: endo.mitoint.24hr"}, "[10]": {"settings": "iPSC-EC, 0.00 µM control = 100.00, read-out: endo.nma.24hr"}, "[11]": {"settings": "iPSC-EC, 0.00 µM control = 100.00, read-out: endo.tc.24hrs"}}, "note": "Counter-ions that a name gives are not always drawn. Like-named read-outs stand apart in the source and are kept apart here."}
{"smiles": "Oc1ccccc1-c1ccc(Cl)cc1", "note": "[2'-OH-PCB 3]", "values": [{"measurement": "minimal effective concentration", "setting": "[1]; endothelial cells (endo), tube formation mtl, read-out: POD endo.mtl.18hr", "result": 13.4, "unit": "µM"}, {"measurement": "minimal effective concentration", "setting": "[1]; endothelial cells (endo), tube formation tlps, read-out: POD endo.tlps.18hr", "result": 9.27, "unit": "µM"}, {"measurement": "minimal effective concentration", "setting": "[1]; endothelial cells (endo), tube formation tta, read-out: POD endo.tta.18hr", "result": 29.9, "unit": "µM"}, {"measurement": "minimal effective concentration", "setting": "[1]; endothelial cells (endo), tube formation ttl, read-out: POD endo.ttl.18hr", "result": 23.1, "unit": "µM"}, {"measurement": "minimal effective concentration", "setting": "[2]; endothelial cells (endo), cyto, read-out: POD endo.cyto.24hr", "result": 44.3, "unit": "µM"}, {"measurement": "minimal effective concentration", "setting": "[2]; endothelial cells (endo), mito, read-out: POD endo.mito.24hr", "result": 44.3, "unit": "µM"}, {"measurement": "minimal effective concentration", "setting": "[2]; endothelial cells (endo), mitoint, read-out: POD endo.mitoint.24hr", "result": 100, "unit": "µM"}, {"measurement": "minimal effective concentration", "setting": "[2]; endothelial cells (endo), nma, read-out: POD endo.nma.24hr", "result": 1.82, "unit": "µM"}, {"measurement": "minimal effective concentration", "setting": "[2]; endothelial cells (endo), tc, read-out: POD endo.tc.24hr", "result": 68.2, "unit": "µM"}]}
{"smiles": "O=S(=O)(O)Oc1cc(Cl)ccc1-c1ccccc1", "note": "[2-yl PCB 3 sulfate]", "values": [{"measurement": "activity at 0.01 µM", "setting": "[1]; [3]", "result": 97.5, "unit": "%"}, {"measurement": "activity at 0.01 µM", "setting": "[1]; [4]", "result": 97.8, "unit": "%"}, {"measurement": "activity at 0.01 µM", "setting": "[1]; [5]", "result": 134, "unit": "%"}, {"measurement": "activity at 0.01 µM", "setting": "[1]; [6]", "result": 124, "unit": "%"}, {"measurement": "activity at 0.1 µM", "setting": "[1]; [3]", "result": 93.9, "unit": "%"}, {"measurement": "activity at 0.1 µM", "setting": "[1]; [4]", "result": 117, "unit": "%"}, {"measurement": "activity at 0.1 µM", "setting": "[1]; [5]", "result": 102, "unit": "%"}, {"measurement": "activity at 0.1 µM", "setting": "[1]; [6]", "result": 93.2, "unit": "%"}, {"measurement": "activity at 1 µM", "setting": "[1]; [3]", "result": 91.4, "unit": "%"}, {"measurement": "activity at 1 µM", "setting": "[1]; [4]", "result": 118, "unit": "%"}, {"measurement": "activity at 1 µM", "setting": "[1]; [5]", "result": 90.6, "unit": "%"}, {"measurement": "activity at 1 µM", "setting": "[1]; [6]", "result": 83.8, "unit": "%"}, {"measurement": "activity at 10 µM", "setting": "[1]; [3]", "result": 83.6, "unit": "%"}, {"measurement": "activity at 10 µM", "setting": "[1]; [4]", "result": 89.9, "unit": "%"}, {"measurement": "activity at 10 µM", "setting": "[1]; [5]", "result": 60.9, "unit": "%"}, {"measurement": "activity at 10 µM", "setting": "[1]; [6]", "result": 58.8, "unit": "%"}, {"measurement": "activity at 100 µM", "setting": "[1]; [3]", "result": 106, "unit": "%"}, {"measurement": "activity at 100 µM", "setting": "[1]; [4]", "result": 86.3, "unit": "%"}, {"measurement": "activity at 100 µM", "setting": "[1]; [5]", "result": 92.2, "unit": "%"}, {"measurement": "activity at 100 µM", "setting": "[1]; [6]", "result": 89, "unit": "%"}, {"measurement": "minimal effective concentration", "setting": "[1]; iPSC-EC tube formation, top concentration 100.00 µM, read-out: endo.mtl.18hr POD", "result": 100, "unit": "µM"}, {"measurement": "minimal effective concentration", "setting": "[1]; iPSC-EC tube formation, top concentration 100.00 µM, read-out: endo.tlps.18hr POD", "result": 100, "unit": "µM"}, {"measurement": "minimal effective concentration", "setting": "[1]; iPSC-EC tube formation, top concentration 100.00 µM, read-out: endo.tta.18hr POD", "result": 100, "unit": "µM"}, {"measurement": "minimal effective concentration", "setting": "[1]; iPSC-EC tube formation, top concentration 100.00 µM, read-out: endo.ttl.18hr POD", "result": 100, "unit": "µM"}, {"measurement": "viability at 0.01 µM", "setting": "[2]; [7]", "result": 93, "unit": "%"}, {"measurement": "activity at 0.01 µM", "setting": "[2]; [8]", "result": 93.3, "unit": "%"}, {"measurement": "activity at 0.01 µM", "setting": "[2]; [9]", "result": 114, "unit": "%"}, {"measurement": "activity at 0.01 µM", "setting": "[2]; [10]", "result": 103, "unit": "%"}, {"measurement": "viability at 0.01 µM", "setting": "[2]; [11]", "result": 93, "unit": "%"}, {"measurement": "viability at 0.1 µM", "setting": "[2]; [7]", "result": 97.1, "unit": "%"}, {"measurement": "activity at 0.1 µM", "setting": "[2]; [8]", "result": 97, "unit": "%"}, {"measurement": "activity at 0.1 µM", "setting": "[2]; [9]", "result": 101, "unit": "%"}, {"measurement": "activity at 0.1 µM", "setting": "[2]; [10]", "result": 100, "unit": "%"}, {"measurement": "viability at 0.1 µM", "setting": "[2]; [11]", "result": 97.1, "unit": "%"}, {"measurement": "viability at 1 µM", "setting": "[2]; [7]", "result": 97.8, "unit": "%"}, {"measurement": "activity at 1 µM", "setting": "[2]; [8]", "result": 98.5, "unit": "%"}, {"measurement": "activity at 1 µM", "setting": "[2]; [9]", "result": 104, "unit": "%"}, {"measurement": "activity at 1 µM", "setting": "[2]; [10]", "result": 99.6, "unit": "%"}, {"measurement": "viability at 1 µM", "setting": "[2]; [11]", "result": 97.8, "unit": "%"}, {"measurement": "viability at 10 µM", "setting": "[2]; [7]", "result": 97.1, "unit": "%"}, {"measurement": "activity at 10 µM", "setting": "[2]; [8]", "result": 97.8, "unit": "%"}, {"measurement": "activity at 10 µM", "setting": "[2]; [9]", "result": 118, "unit": "%"}, {"measurement": "activity at 10 µM", "setting": "[2]; [10]", "result": 99.1, "unit": "%"}, {"measurement": "viability at 10 µM", "setting": "[2]; [11]", "result": 97.2, "unit": "%"}, {"measurement": "viability at 100 µM", "setting": "[2]; [7]", "result": 102, "unit": "%"}, {"measurement": "activity at 100 µM", "setting": "[2]; [8]", "result": 102, "unit": "%"}, {"measurement": "activity at 100 µM", "setting": "[2]; [9]", "result": 99.3, "unit": "%"}, {"measurement": "activity at 100 µM", "setting": "[2]; [10]", "result": 96.5, "unit": "%"}, {"measurement": "viability at 100 µM", "setting": "[2]; [11]", "result": 102, "unit": "%"}, {"measurement": "minimal effective concentration", "setting": "[2]; iPSC-EC, top concentration 100.00 µM, read-out: endo.cyto.24hr POD", "result": 100, "unit": "µM"}, {"measurement": "minimal effective concentration", "setting": "[2]; iPSC-EC, top concentration 100.00 µM, read-out: endo.mito.24hr POD", "result": 100, "unit": "µM"}, {"measurement": "minimal effective concentration", "setting": "[2]; iPSC-EC, top concentration 100.00 µM, read-out: endo.mitoint.24hr POD", "result": 100, "unit": "µM"}, {"measurement": "minimal effective concentration", "setting": "[2]; iPSC-EC, top concentration 100.00 µM, read-out: endo.nma.24hr POD", "result": 100, "unit": "µM"}, {"measurement": "minimal effective concentration", "setting": "[2]; iPSC-EC, top concentration 100.00 µM, read-out: endo.tc.24hrs POD", "result": 100, "unit": "µM"}]}
